We go through one substance from patent publication EP4682141A1, “TRICYCLIC COMPOUND” (ONO Pharmaceutical Co., Ltd., priority 2023, dated 2024).

In one experiment the target is T1, EP3 receptor (Homo sapiens, UniProt P43115).
T1 construct: expressed in transfected cells; host or cells: EP3-Chem1
T1 sequence (P43115 1-390): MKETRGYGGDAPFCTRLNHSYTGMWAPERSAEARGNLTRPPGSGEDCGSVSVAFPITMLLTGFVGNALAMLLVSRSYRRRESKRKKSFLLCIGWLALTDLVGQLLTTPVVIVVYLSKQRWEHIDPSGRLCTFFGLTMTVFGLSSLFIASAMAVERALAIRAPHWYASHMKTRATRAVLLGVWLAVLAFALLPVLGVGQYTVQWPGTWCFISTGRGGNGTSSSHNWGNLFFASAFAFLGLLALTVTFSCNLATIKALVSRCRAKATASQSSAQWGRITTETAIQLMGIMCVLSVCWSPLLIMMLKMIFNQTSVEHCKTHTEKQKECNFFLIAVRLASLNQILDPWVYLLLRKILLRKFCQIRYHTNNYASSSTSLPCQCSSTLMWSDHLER
Briefly: agonist activity on human EP3 receptor (intracellular calcium concentration, EP3-Chem1 cells). Format: cell-based. Particulars: agonist activity on the EP3 receptor. As for the experimental part: (§1) Using CHO cells (EP1-CHO, EP2-CHO, EP3-Chem1, EP4-CHO and IP-CHO) on which various human prostanoid receptors were forcibly expressed, the agonist activity of the test compound on the various prostanoid receptors was examined using the intracellular calcium concentration for EP1 and EP3, and the intracellular cyclic AMP (hereinafter, abbreviated as cAMP) production amount for EP2, EP4 and IP as indices.
The test compound and control substances (PGE2 and iloprost) were dissolved in dimethyl sulfoxide (DMSO) to prepare a 10 mmol/L solution. The prepared 10 mmol/L solution was thawed at the time of use, serially diluted using DMSO, and diluted with a buffer solution 1 for measurement (Hank's balanced salt solution (Thermofischer scientific) containing 1 w/v% human serum albumin (Sigma), 2 µmol/L indomethacin (Sigma), 2.5 mmol/L probenecid, and 10 mmol/L HEPES-NaOH (pH7.4)) or a buffer solution 2 for measurement (D-PBS (Nacalai Tesque) containing 0.1 w/v% human serum albumin, 2 µmol/L diclofenac (Sigma), and 1 mmol/L 3-isobutyl-1-methylxanthine (Sigma)) to perform experiments.

The next experiment deals with T2, EP1 (Homo sapiens, UniProt P34995).
T2 construct: expressed in transfected cells; host or cells: CHO (EP1-CHO)
T2 sequence (P34995 1-402): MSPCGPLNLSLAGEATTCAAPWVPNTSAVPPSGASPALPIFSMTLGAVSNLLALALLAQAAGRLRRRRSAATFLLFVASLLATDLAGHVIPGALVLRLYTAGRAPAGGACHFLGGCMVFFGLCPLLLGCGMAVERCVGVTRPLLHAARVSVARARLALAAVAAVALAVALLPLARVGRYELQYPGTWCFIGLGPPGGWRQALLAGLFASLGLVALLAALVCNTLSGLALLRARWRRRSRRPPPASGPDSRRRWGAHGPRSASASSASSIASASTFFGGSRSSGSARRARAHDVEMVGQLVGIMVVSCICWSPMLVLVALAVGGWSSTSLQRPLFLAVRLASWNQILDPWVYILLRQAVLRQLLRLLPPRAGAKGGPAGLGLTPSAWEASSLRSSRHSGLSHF
Briefly: agonist activity on human EP1 receptor (intracellular calcium concentration, EP1-CHO cells). In kind it is cell-based. Put shortly: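 Calcium 6 dye loaded 1 h at room temperature in HBSS with 1% human serum albumin, 2 µmol/L indomethacin, 2.5 mmol/L probenecid, pH 7.4; agonists then added at various concentrations. Intracellular calcium read by fluorescence (ex 480/em 540 nm) in CHO cells expressing human EP1 or Chem1 cells expressing human EP3.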

A further experiment addresses T3, EP2 (Homo sapiens, UniProt P43116).
T3 construct: expressed in transfected cells; host or cells: CHO (EP2-CHO)
Nature of the experiment: agonist activity on human EP2 receptor (cAMP production, EP2-CHO cells). Format: cell-based. As for the experimental part:
as §1
(§2) The test compound and control substances (PGE2 and iloprost) were dissolved in dimethyl sulfoxide (DMSO) to prepare a 10 mmol/L solution. […]
(§3) On the day of the measurement, EP2-CHO, EP4-CHO, and IP-CHO were obtained by thawing frozen cells. […] The cAMP concentration was measured using a cAMP HTRF HiRange kit (CIS bio International). […] After incubation for 1 hour, time-resolved fluorescence at 620 nm and 660 nm when excited at 340 nm was measured using Synergy Neo (Bioteck), and the ratio (TRF ratio) was determined to calculate the cAMP concentration from the calibration curve.

The next experiment addresses T4, EP4 (Homo sapiens, UniProt P35408).
T4 construct: expressed in transfected cells; host or cells: CHO (EP4-CHO)
Nature of the experiment: agonist activity on human EP4 receptor (cAMP production, EP4-CHO cells). In kind it is cell-based. As for the experimental part: as §1, §2, §3

In a further experiment the target is T5, IP (Homo sapiens, UniProt P43119).
T5 construct: expressed in transfected cells; host or cells: CHO (IP-CHO)
T5 sequence (P43119 whole entry): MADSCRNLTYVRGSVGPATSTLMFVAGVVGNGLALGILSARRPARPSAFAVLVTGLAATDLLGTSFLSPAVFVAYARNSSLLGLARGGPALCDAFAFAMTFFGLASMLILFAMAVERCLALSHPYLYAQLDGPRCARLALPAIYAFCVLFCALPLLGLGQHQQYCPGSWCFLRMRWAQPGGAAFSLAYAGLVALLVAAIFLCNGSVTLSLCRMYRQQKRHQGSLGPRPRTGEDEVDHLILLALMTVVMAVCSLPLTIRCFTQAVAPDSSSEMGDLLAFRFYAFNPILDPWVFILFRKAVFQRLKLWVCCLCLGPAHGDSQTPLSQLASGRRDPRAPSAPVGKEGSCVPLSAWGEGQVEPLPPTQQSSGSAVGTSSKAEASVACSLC
Nature of the experiment: agonist activity on human IP receptor (cAMP production, IP-CHO cells). In kind it is cell-based. As for the experimental part: as §1, §2, §3

For experiment [1], the system named is rat renal ischemia reperfusion (IR) model. Nature of the experiment: in vivo drug efficacy in rat renal ischemia reperfusion (IR) model. Details: species or system Crl : CD (SD) rats. Particulars: subcutaneous osmotic pump. As for the experimental part: The effect of the present compound on renal IR damage was evaluated using male rats.
Male Crl : CD (SD) rats aged 3 or 4 weeks were purchased from Charles River Laboratories Japan, and subjected to experiments. Animals were fed ad libitum with FR-2 (Funabashi Farm) at the time of arrival and with solid feed CE-2 (CLEA Japan) for one week before single kidney removal, and watered ad libitum.
After acclimation breeding, the right kidney was removed about 7 days before renal IR treatment. Specifically, the rats were allowed to inhale isoflurane (Mylan) for anesthesia, and administered buprenorphine (Otsuka Pharmaceutical) as an analgesic at 0.01 mg/kg. The right back was incised, the right kidney was removed, and then the incision was sutured.
Renal IR treatment was performed about 7 days after single kidney removal. Specifically, rats were anesthetized by intraperitoneal administration of sodium pentobarbital (Tokyo Chemical Industry) at a dose of 50 mg/kg, and administered buprenorphine as an analgesic at 0.01 mg/kg. The left abdomen was incised, and the renal artery and vein was sandwiched with a clamp (Natsume Seisakusho) to cause ischemia for 35 minutes. During ischemia, the rats were allowed to lie on a heat-retaining plate set at 38°C, and after 35 minutes, the clamp was removed for reperfusion. After visually confirming that blood flow to the kidney was recovered, the incision was sutured. The sham group was a sham-operated group in which neither ischemia nor reperfusion treatment was performed.
Animals were distributed on the day before renal IR treatment such that differences in the mean of the body weight in each group were not biased, and assigned animal numbers.
The compound of Example 7 (test substance) and physiological saline (Otsuka Pharmaceutical) as a vehicle were subcutaneously administered at 5 mL/kg using an injection needle 5 minutes before renal IR treatment. Saline was administered to the sham group in the same test. The administration dose is described in Table 16.
Specifically, the rats were allowed to inhale isoflurane for anesthesia on the day before renal IR treatment, and administered buprenorphine as an analgesic at 0.01 mg/kg. […] The incision was bonded with Dermabond Advanced (Johnson & Johnson). A pump containing a vehicle was also embedded in the sham group in the same test. The administration dose is described in Table 16.
After renal IR treatment, blood was collected through the tail vein on Day1, Day2, and Day3 to obtain serum. In addition, after renal IR treatment, rats were euthanized by exsanguination through the abdominal aorta under isoflurane anesthesia on Day3.
The respective concentrations of serum creatinine (sCre) and blood urea nitrogen (BUN) were measured using an automatic analyzer 7180 (Hitachi High-Tech).

T3 sequence (P43116 whole entry): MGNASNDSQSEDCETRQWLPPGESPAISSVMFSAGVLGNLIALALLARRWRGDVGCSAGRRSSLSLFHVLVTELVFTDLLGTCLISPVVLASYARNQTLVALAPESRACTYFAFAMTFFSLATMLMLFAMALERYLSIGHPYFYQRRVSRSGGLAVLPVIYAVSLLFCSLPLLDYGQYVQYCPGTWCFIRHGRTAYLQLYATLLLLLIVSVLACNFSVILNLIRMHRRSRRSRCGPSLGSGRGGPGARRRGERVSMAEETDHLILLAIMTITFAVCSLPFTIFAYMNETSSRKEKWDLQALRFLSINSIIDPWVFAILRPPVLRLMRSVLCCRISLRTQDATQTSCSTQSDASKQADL
T4 sequence (P35408 whole entry): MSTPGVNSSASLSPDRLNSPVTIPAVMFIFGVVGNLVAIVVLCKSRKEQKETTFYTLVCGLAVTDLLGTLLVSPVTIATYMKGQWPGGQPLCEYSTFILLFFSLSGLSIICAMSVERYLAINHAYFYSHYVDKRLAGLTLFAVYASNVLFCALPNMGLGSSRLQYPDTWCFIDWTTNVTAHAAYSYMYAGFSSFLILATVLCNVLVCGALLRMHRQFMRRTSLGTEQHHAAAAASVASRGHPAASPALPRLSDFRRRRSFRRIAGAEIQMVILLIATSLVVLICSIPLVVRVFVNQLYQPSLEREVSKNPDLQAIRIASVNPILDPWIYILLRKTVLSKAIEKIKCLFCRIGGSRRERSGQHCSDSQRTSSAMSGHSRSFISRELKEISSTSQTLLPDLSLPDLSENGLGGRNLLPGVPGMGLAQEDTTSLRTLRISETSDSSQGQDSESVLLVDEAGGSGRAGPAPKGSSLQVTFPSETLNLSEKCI

“(1R,2R,3aS,10aR)-1-{(1E,3ξ)-3-[1-(2,5-difluorophenyl)cyclobutyl]-3-hydroxy-1-propen-1-yl}-2-hydroxy-2,3,3a,9,10,10a-hexahydro-1H-benzo[b]cyclopenta[f]oxepine-6-carboxylic acid [Example 7-30]”: the EC50 at EP3 receptor is 0.04 µM; at EP1, above 10 µM; on EP2, above 10 µM; on EP4 it was 1.5 µM; on IP it was above 10 µM. Further, the “blood urea nitrogen (BUN) concentration mean” value is reported as 96.6 in experiment [1] (IR 0.3 µg/kg/min, day 1); 94.3 in experiment [1] (IR 0.3 µg/kg/min, day 2); 79.8 in experiment [1] (IR 0.3 µg/kg/min, day 3); 89.5 in experiment [1] (IR 3.0 µg/kg/min, day 1); 81.8 in experiment [1] (IR 3.0 µg/kg/min, day 2); 70.7 in experiment [1] (IR 3.0 µg/kg/min, day 3). The “serum creatinine (sCre) concentration mean” value in experiment [1] (IR 0.3 µg/kg/min, day 1) worked out at 1.78; in experiment [1] (IR 0.3 µg/kg/min, day 2), 1.42; in experiment [1] (IR 0.3 µg/kg/min, day 3), 1.00; in experiment [1] (IR 3.0 µg/kg/min, day 1), 1.45; in experiment [1] (IR 3.0 µg/kg/min, day 2), 1.10; in experiment [1] (IR 3.0 µg/kg/min, day 3), 0.83.
